Where two headings read alike, the source gives them in different places. Some results are limits rather than exact numbers.

Data set [1] deals with HCV replicons in resistant cell clones. The data set is classed as cell-based. Particulars: fold increase of IC50.
In a further data set the test system is pHCVNeo17.m36 replicon. Put plainly: microbe, parasite or virus in culture. It counts as cell-based. The conditions noted are these: Hepatitis C virus; replicon pHCVNeo17.m36: K@2039, Y2065H; read-out: Cmpd Ib IC50. A general note: In antiviral work, replicon cells carry a viral genome segment that copies itself.
Data set [2] relates to HCV replicons derived from the Con1 isolate in human HeLa cells. It counts as cell-based.
For another data set, the system named is pHCVNeo17.m30 replicon. It counts as cell-based. Particulars: replicon pHCVNeo17.m30: H2057R.
Data set [3] relates to HCV replicon in resistant clone 10AB11. Put plainly: microbe, parasite or virus in culture. It counts as cell-based. The conditions noted are these: Hepatitis C virus, Cell-ELISA, read-out: IC50 Compound (Ib).
Data set [4] concerns pFL.m10 genomic replicon (adapted full length HCV genome). It counts as cell-based, HCV isolate Con1.
For data set [5], the system named is non-adapted replicons derived from the BK isolate of HCV. The data set is classed as cell-based.
The test system of the next data set is pHCVNeo17.m10 replicon. Put plainly: microbe, parasite or virus in culture. The data set is classed as cell-based. The conditions noted are these: pHCVNeo17.m10 replicon in 10AIFN cells, cultured 4 days, Cell-ELISA, read-out: Replicon Inhibition Range IC50.
Another data set relates to pBK-RMSI replicon. Briefly: microbe, parasite or virus in culture. The data set is classed as cell-based. Particulars: Hepatitis C virus, 96 h; subgenomic pBK-RMSI, BK, R1496M + S2204I; 10AIFN cells, four days after transfection.
Another data set has as its system pHCVNeo17.m21 replicon. Put plainly: microbe, parasite or virus in culture. The data set is classed as cell-based. The conditions noted are these: Hepatitis C virus; replicon pHCVNeo17.m21: K@2039, S2404P; read-out: Cmpd Ib IC50.
A further data set deals with pHCVNeo17.m29 replicon. Briefly: microbe, parasite or virus in culture. The data set is classed as cell-based. Particulars: Hepatitis C virus, read-out: Cmpd Ib IC50 (μM).
For data set [6] the following is noted: relative to concentrations effective on the replicon.
The test system of data set [7] is HCV replicon in HBI10A cells. Put plainly: microbe, parasite or virus in culture. It counts as cell-based. Particulars: Hepatitis C virus.
The next data set deals with pHCVNeo17.m35 replicon. The data set is classed as cell-based. The conditions noted are these: replicon pHCVNeo17.m35: Y2065H.
The next data set deals with pHCVNeo17.RG replicon. Put plainly: microbe, parasite or virus in culture. The data set is classed as cell-based. The conditions noted are these: Hepatitis C virus, 96 h; subgenomic pHCVNeo17.RG, Con1, R2884G; 10AIFN cells, four days after transfection.
For the next data set, the system named is pHCVNeo17.wt replicon. It counts as cell-based. Particulars: for Replicon Activation Yes/No: pHCVNeo17.wt replicon in 10AIFN cells, cultured 4 days, Cell-ELISA.
The subject of the next data set is pHCVNeo17.SI replicon. Briefly: microbe, parasite or virus in culture. The data set is classed as cell-based. Particulars: Hepatitis C virus, 96 h; subgenomic pHCVNeo17.SI, Con1, S2204I; 10AIFN cells, four days after transfection.
Another data set concerns the target NS5A protein (Hepatitis C virus genotype 1b, UniProt Q9WMX2, INS2039K). It counts as cell-based. Particulars: HBI10A cells, 2 μM compound (Ib), pulse-chase.
The test system of data set [8] is HCV replicons derived from the Con1 isolate in mouse hepatoma cell line Hepa1-6. The data set is classed as cell-based.
Another data set deals with pHCVNeo17.m50 replicon. Put plainly: microbe, parasite or virus in culture. It counts as cell-based. The conditions noted are these: Hepatitis C virus; replicon pHCVNeo17.m50: K@2039, R2129W; read-out: Cmpd Ib IC50.
In data set [9] the test system is HCV replicon in resistant clone 10AB2. Briefly: microbe, parasite or virus in culture. It counts as cell-based. The conditions noted are these: Hepatitis C virus, Cell-ELISA, read-out: IC50 Compound (Ib).
In data set [10] the test system is non-adapted full length Con1 genomes. The data set is classed as cell-based. The conditions noted are these: lesser extent than with the corresponding replicons.
The subject of another data set is pHCVNeo17.m5 replicon. Put plainly: microbe, parasite or virus in culture. It counts as cell-based. The conditions noted are these: Hepatitis C virus; replicon pHCVNeo17.m5: K@2039; read-out: Cmpd Ib IC50.
For a further data set, the system named is cell proliferation. The conditions noted are these: relative to concentrations effective on the replicon.
Data set [11] relates to HCV replicon in resistant clone 10AB3. Briefly: microbe, parasite or virus in culture. It counts as cell-based. The conditions noted are these: Hepatitis C virus, Cell-ELISA, read-out: IC50 Compound (Ib).
In data set [12] the test system is HCV replicon in resistant clone 10AB7. Put plainly: microbe, parasite or virus in culture. The data set is classed as cell-based. The conditions noted are these: Hepatitis C virus, Cell-ELISA, read-out: IC50 Compound (Ib). A general note: ELISA stands for enzyme-linked immunosorbent assay.

Consider `CC(C)(C)OC(=O)N1CCN(c2ccc(C(=O)Nc3ccc(O)cc3)cc2)CC1` [Example 101, tert-butyl 4-(4-{[(4-hydroxyphenyl)amino]carbonyl}phenyl)piperazine-1-carboxylate], for which the “IC50 in resistant cell clones relative to parental cells” value in data set [1] is recorded as “at least ten times higher”. Also, the IC50 in the data set on pHCVNeo17.m36 replicon is more than 2000 nM; in data set [3] it was more than 2000 nM; with pHCVNeo17.m10 replicon (Hepatitis C virus, 96 h), less than 1000 nM; in the data set with pBK-RMSI replicon, 650 nM; in the data set on pHCVNeo17.m21 replicon it was 38 nM; in the data set on pHCVNeo17.m29 replicon, more than 2 µM. The IC50 in [7] (HBI10A replicon cells, read-out: IC50, dose-dependent inhibition of HCV replication) is 120 ± 60 nM; in data set [7] (parental clone HBI10A, Cell-ELISA, read-out: IC50 Compound (Ib)), 100 ± 50 nM; in the data set with pHCVNeo17.RG replicon, less than 50 nM; in the data set on pHCVNeo17.SI replicon it was 100 nM; in the data set on pHCVNeo17.m50 replicon it was more than 2000 nM; in [9] it was more than 2000 nM. For the same compound, the IC50 with pHCVNeo17.m5 replicon was 100 nM; in [11], more than 2000 nM; in data set [12], more than 2000 nM. Besides, the “Inhibition of HCV replicons in HeLa cells” value in [2] is reported as “inhibited with comparable potencies”. Moreover, the “Cmpd Ib IC50 (μM)” value with pHCVNeo17.m30 replicon is given as “activation”; in the data set with pHCVNeo17.m35 replicon, “No effect”; in the data set with pHCVNeo17.wt replicon (replicon pHCVNeo17.Wt, no mutations), “^bactivation”. Further, the “Inhibition of replication of an adapted full length HCV genome” value in [4] is “inhibited with comparable potency”. In addition, the “Activation of replication of non-adapted BK replicons” value in data set [5] is on record as “activated replication”. Also, in data set [6], the “Toxicity, MTT cytotoxicity assay” value is on record as “only at concentrations two orders of magnitude higher than those effective on the replicon”. For the same compound, the “Replicon Activation Yes/No” value in the data set with pHCVNeo17.wt replicon is on record as “Yes”. Moreover, at NS5A protein, the “Conversion of NS5A p56 into hyperphosphorylated p58” value was “the rate and the extent of conversion of the p56 into p58 were reduced”. Also, the “Inhibition of HCV replicons in Hepa1-6 cells” value in data set [8] is reported as “inhibited with comparable potencies”. Also, the “Stimulation of replication of non-adapted full length Con1 genomes” value in [10] is reported as “stimulated replication”. Moreover, in the data set with cell proliferation, the “Inhibition of cell proliferation, 14C thymidine incorporation” value is recorded as “only at concentrations two orders of magnitude higher than those effective on the replicon”.
Take `CC(C)(C)OC(=O)N1CCN(c2ccc(C(=O)Nc3cccc(Br)c3)cc2)CC1` [Example 103, tert-butyl 4-(4-{[(3-bromophenyl)amino]carbonyl}phenyl)piperazine-1-carboxylate]: the 50% inhibitory concentration (IC50) in the data set with pHCVNeo17.m10 replicon (Hepatitis C virus, 96 h) was less than 1000 nM. For the same compound, the “Replicon Activation Yes/No” value in the data set on pHCVNeo17.wt replicon was “No”.
For `CC(=O)c1cccc(NC(=O)c2ccc(N3CCN(C(=O)OC(C)(C)C)CC3)cc2)c1` [Example 108, tert-butyl 4-(4-{[(3-acetylphenyl)amino]carbonyl}phenyl)piperazine-1-carboxylate], in that order: more than 1000 nM and “No”.
Taken in the same sequence, the figures for `CC(C)(C)OC(=O)N1CCN(c2ccc(C(=O)Nc3ccc(C(=O)c4ccccc4)cc3)cc2)CC1` [Example 112, tert-butyl 4-(4-{[(4-benzoylphenyl)amino]carbonyl}phenyl)piperazine-1-carboxylate] were less than 1000 nM and “No”.
Taken in the same sequence, the figures for `C=Cc1ccc(NC(=O)c2ccc(N3CCN(C(=O)OC(C)(C)C)CC3)cc2)cc1` [Example 115, tert-butyl 4-(4-{[(4-vinylphenyl)amino]carbonyl}phenyl)piperazine-1-carboxylate] were more than 1000 nM and “No”.
As for `CC(C)(C)OC(=O)N1CCN(c2ccc(C(=O)Nc3ccc(/C=C/c4ccc(O)cc4)cc3)cc2)CC1` [Example 116, tert-butyl 4-{4-[({4-[(E)-2-(4-hydroxyphenyl)vinyl]phenyl}amino)carbonyl]phenyl}piperazine-1-carboxylate], in the data set with pHCVNeo17.m10 replicon (Hepatitis C virus, 96 h), the IC50 was less than 1000 nM. Besides, in the data set on pHCVNeo17.wt replicon, the “Replicon Activation Yes/No” value is reported as “No”.
For `CC(=O)Oc1ccc(NC(=O)c2ccc(N3CCN(C(=O)OC(C)(C)C)CC3)cc2)cc1` [Example 123, tert-butyl 4-[4-({[4-(acetyloxy)phenyl]amino}carbonyl)phenyl]piperazine-1-carboxylate], in that order: less than 1000 nM and “Yes”.
Taken in the same sequence, the figures for `CC(C)COC(=O)N1CCN(c2ccc(C(=O)Nc3ccc(O)cc3)cc2)CC1` [Example 201, isobutyl 4-(4-{[(4-hydroxyphenyl)amino]carbonyl}phenyl)piperazine-1-carboxylate] were more than 1000 nM and “No”.
As to `O=C(Nc1ccc(O)cc1)c1ccc(N2CCN(C(=O)OCc3ccccc3)CC2)cc1` [Example 216, benzyl 4-(4-{[(4-hydroxyphenyl)amino]carbonyl}phenyl)piperazine-1-carboxylate], in the data set with pHCVNeo17.m10 replicon (Hepatitis C virus, 96 h), the IC50 was less than 1000 nM. Besides, the “Replicon Activation Yes/No” value in the data set with pHCVNeo17.wt replicon is recorded as “Yes”.
For `CC(C)(C)NC(=O)N1CCN(c2ccc(C(=O)Nc3ccc(O)cc3)cc2)CC1` [Example 302, N-(tert-butyl)-4-(4-{[(4-hydroxyphenyl)amino]carbonyl}phenyl)piperazine-1-carboxamide], in that order: less than 1000 nM and “Yes”.
For `COc1ccc(CNC(=O)N2CCN(c3ccc(C(=O)Nc4ccc(O)cc4)cc3)CC2)cc1` [Example 303, 4-(4-{[(4-hydroxyphenyl)amino]carbonyl}phenyl)-N-(4-methoxybenzyl)piperazine-1-carboxamide], in that order: less than 1000 nM and “Yes”.
On to `C[C@@H](NC(=O)N1CCN(c2ccc(C(=O)Nc3ccc(O)cc3)cc2)CC1)c1ccccc1` [Example 306, 4-(4-{[(4-hydroxyphenyl)amino]carbonyl}phenyl)-N-[(1R)-1-phenylethyl] piperazine-1-carboxamide], for which the IC50 with pHCVNeo17.m10 replicon is less than 1000 nM. In addition, the “Replicon Activation Yes/No” value in the data set with pHCVNeo17.wt replicon was “No”.
`O=C(Nc1ccc(O)cc1)c1ccc(N2CCN(C(=O)C3CCCCC3)CC2)cc1` [Example 401, 4-[4-(cyclohexylcarbonyl)piperazin-1-yl]-N-(4-hydroxyphenyl)benzamide]: the IC50 in the data set on pHCVNeo17.m10 replicon (Hepatitis C virus, 96 h) was less than 1000 nM. The “Replicon Activation Yes/No” value in the data set on pHCVNeo17.wt replicon was “No”.
For `CC(C)(C)C(=O)N1CCN(c2ccc(C(=O)Nc3ccc(O)cc3)cc2)CC1` [Example 403, 4-[4-(2,2-dimethylpropanoyl)piperazin-1-yl]-N-(4-hydroxyphenyl)benzamide], in that order: less than 1000 nM and “No”.
Turning to `O=C(Nc1ccc(O)cc1)c1ccc(N2CCN(S(=O)(=O)/C=C/c3ccccc3)CC2)cc1` [Example 503, N-(4-hydroxyphenyl)-4-(4-{[(E)-2-phenylvinyl]sulfonyl}piperazin-1-yl)benzamide], the IC50 in the data set on pHCVNeo17.m10 replicon (Hepatitis C virus, 96 h) was more than 1000 nM. Moreover, in the data set with pHCVNeo17.wt replicon, the “Replicon Activation Yes/No” value was “No”.
Taken in the same sequence, the figures for `CC(C)(C)OC(=O)N1CCC(c2ccc(C(=O)Nc3ccc(O)cc3)cc2)CC1` [Example 602, tert-butyl 4-(4-{[(4-hydroxyphenyl)amino]carbonyl}phenyl)piperidine-1-carboxylate] were more than 1000 nM and “No”.
As for `CC(C)(C)OC(=O)N1CCN(c2ccc(NC(=O)c3ccc(O)cc3)cc2)CC1` [Example 603, tert-butyl 4-{4-[(4-hydroxybenzoyl)amino]phenyl}piperazine-1-carboxylate], in the data set on pHCVNeo17.m10 replicon (Hepatitis C virus, 96 h), the IC50 was more than 1000 nM. Further, in the data set with pHCVNeo17.wt replicon, the “Replicon Activation Yes/No” value is “No”.

By IC50 is commonly meant the point on the concentration scale where inhibition reaches its midpoint.

These data come from patent US8012982B2, “Modulators of HCV replication” (priority 2004, dated 2011).
